# Test results reported in paper PMC6379152 (Cellular microbiology, 2018).
# System: rHSGGT1 (HSGGT1)
# Assay: pNA release at […] nm, Michaelis-Menten fit
# Type: biochemical, Helicobacter saguini
# Settings: 20 mM glycylglycine as acceptor; Tris-HCl pH 8; 37 C; mean of three batches
smiles,measurement,value
"N[C@@H](CCC(=O)Nc1ccc([N+](=O)[O-])cc1)C(=O)O [GpNA, L-y-glutamyl-p nitroanilide]",Km,12.3 ± 2.35 µM
